Reference: patent US4801712A, “2-Alkyl(or phenyl)thio-6-n-alkylergolines are dopamine D-1 antagonists without D-2 agonist activity” (Eli Lilly and Company, priority 1987, dated 1989)
Counter-ions that a name gives are not always drawn.

Tests used:
[1] = system: prolactin secretion (D-2); assay: Inhibition of prolactin secretion in nonreserpinized rats (test for D-2 dopamine agonist activity); assay type: in vivo, rat (adult male, Sprague-Dawley); settings: 1 hour after treatment, rat serum
Experimental: The drugs of this invention, represented by formulas II and III, are shown to lack D-2 dopamine agonist activity at D-1 antagonist dose levels in a test to determine their ability (or inability) to inhibit the secretion of prolactin in nonrespernized rats. This test was carried out as follows.
Adult male rats of the Sprague-Dawley strain weighing about 200 g. were housed in an air-conditioned room with controlled lighting (14 hours light-10 hours dark) and fed lab chow and water ad libitum. The compound was dissolved in 10 percent ethanol, and injected intraperitoneally at a dose of 1 or 2 mg/kg. The compound was administered to a group of 10 rats, and a control group of 10 intact males received an equivalent amount of 10 percent ethanol. One hour after treatment, all rats were killed by decapitation, and 150 μl aliquots of serum were assayed for prolactin.
The difference between the mean prolactin level of the treated rats and mean prolactin level of the control rats, divided by the mean prolactin level of the control rats, gives the percent change in prolactin secretion attributable to the given dose.

[2] = molecular target: T1, dopamine D-1 receptors (Rattus norvegicus, UniProt P18901); assay: Retinal Adenylate Cyclase Assay (dopamine D-1 antagonist assay); assay type: biochemical, rat (adult male, Sprague-Dawley); settings: 10 μM dopamine, rat retina homogenate; for inhibition at 0.1 µM: 0.1 μM drug; for inhibition at 1 µM: 1.0 μM drug; for inhibition at 3 µM: 3.0 μM drug; for inhibition at 10 µM: 10.0 μM drug; for inhibition at 100 µM: 100.0 μM drug
T1 construct: Retinal tissue was removed from the eyeball and homogenized; from tissue; host or cells: rat retina homogenate (adult male Sprague-Dawley)
T1 sequence (P18901 whole entry): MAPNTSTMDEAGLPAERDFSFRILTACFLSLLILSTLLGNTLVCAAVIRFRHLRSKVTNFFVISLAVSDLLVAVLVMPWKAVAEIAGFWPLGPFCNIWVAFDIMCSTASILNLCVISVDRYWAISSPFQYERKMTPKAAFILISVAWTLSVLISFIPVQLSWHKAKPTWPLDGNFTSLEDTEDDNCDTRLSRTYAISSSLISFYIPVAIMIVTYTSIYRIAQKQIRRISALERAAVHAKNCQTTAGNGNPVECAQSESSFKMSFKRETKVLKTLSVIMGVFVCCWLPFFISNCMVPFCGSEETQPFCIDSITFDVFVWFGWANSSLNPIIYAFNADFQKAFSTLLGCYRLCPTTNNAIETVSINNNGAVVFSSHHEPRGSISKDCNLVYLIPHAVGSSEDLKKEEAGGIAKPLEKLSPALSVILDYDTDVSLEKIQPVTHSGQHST
Experimental: The compounds of this invention are dopamine D-1 antagonists without D-2 agonist activity; i.e., they counter the effects of dopamine at D-1 receptors in the brain. The dopamine D-1 antagonist assay was carried out as follows.
Retinal Adenylate Cyclase Assay
Adult male, Sprague-Dawley rats purchased from Charles River Breeding Laboratories (North Wilmington, Mass.) were used in these studies. The rats were decapitated and the eyeballs were removed. The eyeballs were bisected at the juncture of the sclera and iris using capsulotomy scissors. The retina was dissociated from the choroid by irrigation with saline. Retinal tissue was removed from the eyeball and homogenized with Tris-2 mM EGTA (pH 7.4; 1:150 wt.:vol.) using a teflon-glass Dounce homogenizer at a speed of 50 rpm.
The adenylate cyclase assay was performed at an incubation temperature of 30° C. and over a 20-minute reaction period. The reaction mixture contained the following constant ingredients: 2 mM MgSO4, 0.5 mM EGTA, 1 mM IBMX, 0.01 mM GTP, 80 mM Tris-HCl, pH 7.4, 0.5 mM ATP with 3-5×10^6 cpm ^32 P-ATP and 20-25 μg retinal homogenate protein. The reaction mixture also contained various concentrations of the compound tested alone or in the presence of 10 μM dopamine. The reaction was started by the addition of ATP/^32 P-ATP and was stopped by the addition of a solution containing 1% SDS, 20 mM ATP, 0.7 mM cyclic AMP, 80 mM Tris-HCl pH 7.4 and 10^4 cpm ^3 H-cyclic AMP in a total volume of 200 μl. This mixture was heated for 2 minutes at 90° C. to further insure reaction termination. The ^32 P cyclic AMP formed during the reaction was isolated from each sample using the chromatographic method of Solomon (1979). The ^3 H-cyclic AMP was also simultaneously isolated with this procedure. The net ^32 P-cyclic AMP formed was calculated by correcting the final ^32 P cpm for column recovery efficiency delermined by the ^3 H recovery and for background radioactivity determined by the radioactivity in incubates without homogenate. Homogenate protein determinations were made using the BioRad protein assay with bovine serum albumin used at the reference protein. Dopaminergic agonist activity was evaluated based upon percent stimulation over activity without drug. Dopaminergic antagonist activity was estimated based upon the percent inhibition of the response to 10 μM dopamine.
In the Table, column 1 gives the name of the compound, column 2, the concentration of drug in the medium, and column 3, the percent inhibition of 10 μM dopamine.

[3] = system: prolactin; settings: found by Clemens, Semonsky, Meites and co-workers; cited from earlier work

In the case of `CSC[C@@H]1C[C@@H]2c3cccc4[nH]c(SC)c(c34)C[C@H]2N(C)C1` [D-2-methylthio-6-methyl-8β-methylthiomethylergoline], the “Percent changes in prolactin (stimulation)” value ([1]; 2 mg/kg i.p., * statistically significant at p < 0.05) is reported as 54%, the inhibition at 0.1 µM [2] is reported as -5% and the inhibition at 1 µM [2] is reported as 26.4 ± 6%. The inhibition at 3 µM [2] was 49 ± 0.8%, the inhibition at 10 µM [2] was 72.5 ± 4.8% and the inhibition at 30 µM ([2]; 30.0 μM drug) was 73.8 ± 4.2%. For the same compound, the inhibition at 100 µM [2] was 76.6 ± 7.7%.
With `CSc1[nH]c2cccc3c2c1C[C@@H]1[C@@H]3CC(CC#N)CN1C` (stereo partly drawn) [D-2-methylthio-6-methyl-8-cyanomethylergoline] the inhibition at 2 mg/kg ([1]; ip, 2 mg/kg i.p., * statistically significant at p < 0.05, read-out: Percent changes in prolactin (inhibition)) was 68%.
In the case of `CC(C)C[C@H]1C(=O)N2CCC[C@H]2[C@]2(O)O[C@](NC(=O)[C@@H]3C=C4c5cccc6[nH]c(Br)c(c56)C[C@H]4N(C)C3)(C(C)C)C(=O)N12` [2-bromo α-ergokryptine], the “activity as prolactin inhibitors” value [3] is given as “activity as prolactin inhibitors”.
For `CSc1[nH]c2cccc3c2c1CC(N(C)C)C3` (racemic) [(±)-2-methylthio-4-dimethyamino-1,3,4,5-tetrahydrobenz[c,d]indole maleate], the inhibition at 1 mg/kg ([1]; ip, 1 mg/kg i.p., not marked as statistically significant, read-out: Percent changes in prolactin (inhibition)) was 9%, the inhibition at 0.1 µM [2] was -5.3% and the inhibition at 0.3 µM ([2]; 0.3 μM drug) was -2.2 ± 3.8%. For the same compound, the inhibition at 1 µM [2] was 0.9 ± 1.5%, the inhibition at 3 µM [2] was 19.1 ± 6.4% and the inhibition at 10 µM [2] was 34.7 ± 13%. The inhibition at 100 µM [2] was 84 ± 3.3%.
In the case of `CC(C)[C@H]1C(=O)N2CCC[C@H]2[C@]2(O)O[C@](NC(=O)[C@@H]3C[C@@H]4c5cccc6[nH]cc(c56)C[C@H]4N(C)C3)(C(C)C)C(=O)N12` [dihydroergocornine], the “activity as prolactin inhibitors” value [3] is given as “activity as prolactin inhibitors”.
In the case of `CN1CC(CC#N)C[C@@H]2c3cccc4[nH]cc(c34)C[C@H]21` (stereo partly drawn) [D-6-methyl-8-cyanomethylergoline], the “activity as prolactin inhibitors” value [3] is given as “activity as prolactin inhibitors”.
In the case of `CC(C)[C@H]1C(=O)N2CCC[C@H]2[C@]2(O)O[C@](NC(=O)[C@@H]3C=C4c5cccc6[nH]cc(c56)C[C@H]4N(C)C3)(C(C)C)C(=O)N12` [Ergocornine], the “activity as prolactin inhibitors” value [3] is listed as “activity as prolactin inhibitors”.
